Measurements: US9096531B2, “Fused imidazole derivative” (TOA EIYO LTD., priority 2010, dated 2015)

Experiments:
[1] = molecular target: T1, human T-type calcium channels (human Cav3.2) (Homo sapiens, UniProt O95180); assay: Intracellular calcium (Fura2 fluorescence) assay in HEK293 cells stably expressing human Cav3.2; type: cell-based; settings: Fura2 fluorescence ratio after calcium chloride addition, 15 min with compound
T1 construct: expressed in transfected cells
Protocol: Representative compounds of the present invention were tested on the selective antagonistic effect against T-type calcium channels (Cav3.2) by way of the following Test Example. For each test, human embryonic kidney cells (HEK293 cells) in which human T-type calcium channels (human Cav3.2) were stably expressed were used.
HEK293 cells in which human Cav3.2 were stably expressed were cultured at 37° C. in Alpha-MEM containing 10% (v/v) fetal bovine serum (FBS), penicillin (100 U/mL), streptomycin (100 μg/mL) and G418 (250 μg/mL). The cells were suspended in the culture medium and seeded onto a 96-well plate, and then the cells were cultured for 24 hours. The culture medium was removed, and the culture medium was replaced with S-MEM containing 5% (v/v) FBS, calcium chloride (0.5 mmol/L), L-glutamine (2 mmol/L), L-alanine (8.9 ng/mL), L-asparagine (13.2 ng/mL), L-aspartic acid (1.33 ng/mL), L-glutamic acid (1.47 ng/mL), glycine (7.5 ng/mL), L-proline (11.5 ng/mL), L-serine (10.5 ng/mL), penicillin (100 U/mL), and streptomycin (100 μg/mL). The cells were cultured for another 24 hours. The culture medium was removed again, and the cells were washed with an assay buffer (140 mmol/L sodium chloride, 5 mmol/L potassium chloride, 0.5 mmol/L magnesium chloride, 0.5 mmol/L calcium chloride, 10 mmol/L glucose, 0.4 mmol/L magnesium sulfate, 10 mmol/L HEPES, and 250 μmol/L sulfinpyrazone, pH 7.4) that had been kept warm at 37° C. Subsequently, the assay buffer in which Fura2-AM, which is a fluorescent Ca^2+ indicator, was dissolved at 5 μM was added to the cells, and the cells were cultured at 37° C. for 30 minutes. The assay buffer containing dissolved Fura2 was removed, and the cells were washed with the assay buffer. Subsequently, the assay buffer to which a test compound had been added was added to the cells, and the cells were cultured for 15 minutes. The plate was placed in a fluorescence analyzer (Flex Station II, Molecular Devices, LLC), the baseline was measured, and then the change in the intracellular calcium concentration that was caused when an assay buffer containing 100 mmol/L calcium chloride was added, was measured (excited at 340 nm and 380 nm, and detected at 510 nm). Thus, the fluorescence intensity ratios obtainable at the respective wavelengths were calculated.
Meanwhile, the test compound solution was prepared by dissolving each of the test compounds in DMSO to a concentration of 10 mmol/L, and then adding the assay buffer to a predetermined concentration. As a control solution, DMSO was used instead of the test compounds.
The inhibitory effect value (%) of each test compound was calculated by subtracting the average value of the fluorescence intensity ratio for the period of 0 to 20 seconds after the initiation of measurement, from the average value of the fluorescence intensity ratio for the period of 45 to 50 seconds after the initiation of measurement, and comparing the activity in the presence of the test compound with the value in the control solution as the maximum activity of Cav3.2.
Curve fitting formula (Model 08: Sigmoidal Inhibition Curve, Vmax+Y2 to Y2) Y=Vmax×(1−(X^n/(K^n+X^n)))+Y2
% inhibition value=(RFU (compound)—RFU(LC))/(RFU (HC)−(RFU(LC))
HC: Average of RFU value for the period of 25 to 30 seconds after the addition of Ca^2+-containing assay buffer after the control solution treatment (for the period of 45 to 50 seconds after the initiation of measurement)
LC: Average of RFU value for the period of 25 to 30 seconds after the addition of non-Ca^2+-containing assay buffer after the control solution treatment (for the period of 45 to 50 seconds after the initiation of measurement)
The RFU in the formula represents the relative fluorescence unit.

[2] = molecular target: T1, human T-type calcium channels (human Cav3.2); assay: Electrophysiological test (patch clamp method) in HEK293 cells stably expressing human Cav3.2; type: cell-based; settings: auto-patch clamp, peak calcium current, holding potential -80 mV, pulse of -20 mV
Protocol: For each test, human embryonic kidney cells (HEK293 cells) in which human T-type calcium channels (human Cav3.2) were stably expressed were used.
HEK293 cells in which human Cav3.2 were stably expressed were cultured at 37° C. in Alpha-MEM containing 10% (v/v) fetal bovine serum (FBS), penicillin (100 U/mL), streptomycin (100 μg/mL) and G418 (250 μg/mL). The cells were dissociated by Accutase (Sigma-Aldrich Co.) treatment and were used as a suspension in the culture medium. The calcium current was measured with an auto-patch clamp system (Port-a-Patch, Nanion Technologies, GmbH), by using an internal solution (50 mmol/L CsCl, 10 mmol/L NaCl, 60 mmol/L CsF, 2 mmol/L MgCl2, 20 mmol/L EGTA, 10 mmol/L HEPES/CsOH, pH 7.2) and an external solution (80 mmol/L NaCl, 1 mmol/L TEAC1, 3 mmol/L KCl, 35 mmol/L CaCl2, 10 mmol/L MgCl2, 10 mmol/L HEPES, pH 7.2).
The inhibitory effect of the compound against the peak current was measured by fixing the holding potential at −80 mV, and applying a pulse of −20 mV to the cells at an interval of 5 seconds. The compound evaluation was carried out by sequentially replacing the external solution containing the compound (1 μmol/L, 3 μmol/L, 10 μmol/L, and 50 μmol/L), and measuring the current. The inhibition ratio was calculated from the peak current value, and the IC50 value was determined by converting the inhibition ratio according to a probit analysis, and then calculating the IC50 value from an approximation formula deduced by linear regression.

T1 sequence (O95180 whole entry): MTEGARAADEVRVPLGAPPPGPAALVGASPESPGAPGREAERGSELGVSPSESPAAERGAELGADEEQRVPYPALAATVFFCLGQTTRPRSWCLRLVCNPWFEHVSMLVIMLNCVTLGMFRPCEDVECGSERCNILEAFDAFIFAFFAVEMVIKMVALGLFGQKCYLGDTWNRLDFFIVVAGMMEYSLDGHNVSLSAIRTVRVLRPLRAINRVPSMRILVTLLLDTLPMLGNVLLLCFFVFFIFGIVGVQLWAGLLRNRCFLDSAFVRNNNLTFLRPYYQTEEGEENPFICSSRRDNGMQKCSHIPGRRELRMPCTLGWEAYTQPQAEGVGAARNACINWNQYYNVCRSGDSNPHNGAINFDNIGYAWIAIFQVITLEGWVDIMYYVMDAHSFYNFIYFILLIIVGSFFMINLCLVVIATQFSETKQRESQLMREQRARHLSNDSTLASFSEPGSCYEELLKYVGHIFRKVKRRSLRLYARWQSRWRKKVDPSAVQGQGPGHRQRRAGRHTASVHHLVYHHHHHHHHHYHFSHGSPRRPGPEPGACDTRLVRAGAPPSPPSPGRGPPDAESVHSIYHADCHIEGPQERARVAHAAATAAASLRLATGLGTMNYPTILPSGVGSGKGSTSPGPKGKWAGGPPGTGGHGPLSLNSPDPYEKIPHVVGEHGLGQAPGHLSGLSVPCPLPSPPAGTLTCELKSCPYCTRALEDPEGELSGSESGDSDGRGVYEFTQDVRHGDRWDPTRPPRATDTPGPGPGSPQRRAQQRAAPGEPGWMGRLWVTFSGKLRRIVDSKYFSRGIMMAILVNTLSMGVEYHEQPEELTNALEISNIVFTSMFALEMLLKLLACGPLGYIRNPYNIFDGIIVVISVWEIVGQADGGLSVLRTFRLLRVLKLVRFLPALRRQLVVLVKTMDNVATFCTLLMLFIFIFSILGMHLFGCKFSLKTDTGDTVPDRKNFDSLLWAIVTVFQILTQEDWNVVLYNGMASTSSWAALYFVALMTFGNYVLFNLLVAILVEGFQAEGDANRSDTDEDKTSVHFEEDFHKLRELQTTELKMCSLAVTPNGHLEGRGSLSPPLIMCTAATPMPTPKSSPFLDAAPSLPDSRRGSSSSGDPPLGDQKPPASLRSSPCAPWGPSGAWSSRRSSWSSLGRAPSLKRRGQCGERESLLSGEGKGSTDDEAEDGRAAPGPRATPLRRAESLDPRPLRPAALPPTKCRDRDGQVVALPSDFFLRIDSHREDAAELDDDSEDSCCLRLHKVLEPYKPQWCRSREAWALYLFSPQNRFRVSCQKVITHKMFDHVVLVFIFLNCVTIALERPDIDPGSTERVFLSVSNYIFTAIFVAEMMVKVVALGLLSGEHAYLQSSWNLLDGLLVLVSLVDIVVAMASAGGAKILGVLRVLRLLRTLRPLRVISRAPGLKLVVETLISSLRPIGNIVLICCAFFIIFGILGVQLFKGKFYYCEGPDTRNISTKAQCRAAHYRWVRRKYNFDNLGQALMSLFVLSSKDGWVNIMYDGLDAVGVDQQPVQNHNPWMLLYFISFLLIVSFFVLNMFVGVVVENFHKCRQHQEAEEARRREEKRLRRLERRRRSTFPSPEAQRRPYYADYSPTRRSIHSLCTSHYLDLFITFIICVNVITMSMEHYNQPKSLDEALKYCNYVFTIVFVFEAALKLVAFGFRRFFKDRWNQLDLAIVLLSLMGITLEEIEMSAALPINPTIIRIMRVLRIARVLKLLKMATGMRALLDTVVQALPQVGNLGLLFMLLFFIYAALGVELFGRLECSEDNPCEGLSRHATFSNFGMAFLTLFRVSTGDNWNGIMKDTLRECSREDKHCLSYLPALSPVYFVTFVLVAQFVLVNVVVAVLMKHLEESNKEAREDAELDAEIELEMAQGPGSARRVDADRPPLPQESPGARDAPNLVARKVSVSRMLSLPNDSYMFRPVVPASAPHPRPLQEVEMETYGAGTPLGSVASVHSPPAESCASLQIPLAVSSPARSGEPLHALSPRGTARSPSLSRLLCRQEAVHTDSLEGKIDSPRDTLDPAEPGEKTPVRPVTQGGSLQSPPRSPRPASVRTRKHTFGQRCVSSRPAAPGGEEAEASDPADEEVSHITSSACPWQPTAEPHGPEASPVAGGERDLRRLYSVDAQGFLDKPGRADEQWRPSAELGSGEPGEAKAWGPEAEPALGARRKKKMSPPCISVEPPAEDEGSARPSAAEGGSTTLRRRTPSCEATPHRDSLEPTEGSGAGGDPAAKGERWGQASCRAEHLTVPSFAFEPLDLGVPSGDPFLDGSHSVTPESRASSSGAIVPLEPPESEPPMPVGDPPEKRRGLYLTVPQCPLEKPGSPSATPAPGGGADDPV

IC50 [1] [nM]	IC50 [2] [nM]	Compound
320	1920	OC(c1ccc(OC(F)(F)F)cc1)c1nc2cc(F)ccc2[nH]1 (stereo not shown) [Example 1, (5-Fluoro-1H-benzimidazol-2-yl)-(4-trifluoromethoxyphenyl)methanol]
470	–	OC(c1ccc(SC(F)(F)F)cc1)c1nc2cc(F)ccc2[nH]1 (stereo not shown) [Example 3]
650	–	OC(c1ccc(C(F)(F)F)cc1)c1nc2cc(F)ccc2[nH]1 (stereo not shown) [Example 4]
210	–	OC(c1ccc(C(F)(F)F)c(F)c1)c1nc2cc(F)ccc2[nH]1 (stereo not shown) [Example 5]
590	–	OC(c1ccc(OC(F)(F)C(F)F)cc1)c1nc2cc(F)ccc2[nH]1 (stereo not shown) [Example 6]
100	–	OC(c1ccc(OC(F)(F)F)c(F)c1)c1nc2cc(F)ccc2[nH]1 (stereo not shown) [Example 12]
270	–	OC(c1ccc(OC(F)(F)F)c(Br)c1)c1nc2cc(F)ccc2[nH]1 (stereo not shown) [Example 13]
490	–	OC(c1ccc2c(c1)OC(F)(F)O2)c1nc2cc(F)ccc2[nH]1 (stereo not shown) [Example 16]
920	–	CCOC(c1ccc(C(F)(F)F)cc1)c1nc2cc(F)ccc2[nH]1 (stereo not shown) [Example 27]
370	–	CCOC(c1ccc(OC(F)(F)F)c(F)c1)c1nc2cc(F)ccc2[nH]1 (stereo not shown) [Example 29]
630	–	CCOC(c1ccc2c(c1)OC(F)(F)O2)c1nc2cc(F)ccc2[nH]1 (stereo not shown) [Example 32]
10	1010	OC(c1ccc(OC(F)(F)F)cc1)c1nc2cc(Cl)cnc2[nH]1 (stereo not shown) [Example 44, (6-Chloro-3H-imidazo[4,5-b]pyridin-2-yl)-(4-trifluoromethoxyphenyl)methanol]
220	–	OC(c1ccc(OC(F)(F)F)cc1)c1nc2ccc(Cl)nc2[nH]1 (stereo not shown) [Example 46]
590	–	CCCSc1ccc2[nH]c(C(O)c3ccc(OC(F)(F)F)cc3)nc2c1 (stereo not shown) [Example 47]
160	–	OC(c1ccc(OC(F)(F)F)cc1)c1nc2cccnc2[nH]1 (stereo not shown) [Example 49]
50	–	OC(c1ccc2c(c1)OC(F)(F)O2)c1nc2cc(Cl)cnc2[nH]1 (stereo not shown) [Example 50]
170	1770	CCOC(c1ccc(OC(F)(F)F)cc1)c1nc2cc(Cl)cnc2[nH]1 (stereo not shown) [Example 53]
700	–	CCOC(c1ccc(OCc2ccc(F)cc2)cc1)c1nc2cc(Cl)cnc2[nH]1 (stereo not shown) [Example 58]
580	1760	CCOC(c1ccc(OC(F)(F)F)cc1)c1nc2cc(F)ccc2[nH]1 (stereo not shown) [Example 70, 2-[Ethoxy(4-trifluoromethoxyphenyl)methyl]-5-fluoro-1H-benzimidazole]
780	–	COC(c1ccc(OC(F)(F)F)cc1)c1nc2cc(F)ccc2[nH]1 (stereo not shown) [Example 89]
960	–	CCOc1ccc2[nH]c(C(OCC)c3ccc(SC(F)(F)F)cc3)nc2c1 (stereo not shown) [Example 91]
370	–	OC(c1ccc(OC(F)(F)F)cc1)c1nc2cc(Br)ccc2[nH]1 (stereo not shown) [Example 112]
190	–	N#Cc1ccc2[nH]c(C(O)c3ccc(OC(F)(F)F)cc3)nc2c1 (stereo not shown) [Example 114, 2-[Hydroxy(4-trifluoromethoxyphenyl)methyl]-1H-benzimidazole-5-carbonitrile]
990	–	CCOC(c1ccc(OC(F)(F)F)cc1)c1nc2cc(C#N)ccc2[nH]1 (stereo not shown) [Example 115, 2-[Ethoxy(4-trifluoromethoxyphenyl)methyl]-1H-benzimidazole-5-carbonitrile]
